Source: patent US10072096B2, “Modified glycoprotein, protein-conjugate and process for the preparation thereof” (SynAffix B.V., priority 2013, dated 2018)

Experiment: Stability studies of succinimides 67-69 in PBS with or without glutathione, product ratio by LC-MS
Type: physicochemical
Conditions: 37° C.
Procedure: One of succinimide conjugates 67-69 (1 mg) was dissolved in DMF (400 μL) followed by the addition of buffer solution 1, 2 or 3 (800 μL). Buffer solution 1 is PBS, buffer solution 2 is PBS+1 mM glutathione (GSH, reduced) and buffer solution 3 is PBS+1 mM glutathione (oxidized). Final concentration of glutathione (through dilution with DMF) is […]. The samples were incubated at 37° C. and measured in time. Ratio of products was determined by LC-MS.

[1] = 48 h, buffer 2 (PBS+1 mM glutathione, reduced; final 0.71 mM)
[2] = 48 h, buffer 3 (PBS+1 mM glutathione, oxidized; final 0.71 mM)
[3] = 120 h, buffer 2 (PBS+1 mM glutathione, reduced; final 0.71 mM)
[4] = 120 h, buffer 3 (PBS+1 mM glutathione, oxidized; final 0.71 mM)

| SMILES | Relative ratio: GS adduct (glutathione adduct formed by reverse Michael, then GSH addition) (48 h, buffer 1 (PBS)) | Relative ratio: Hydro pro (hydrolyzed succinimide) (48 h, buffer 1 (PBS)) | Relative ratio: Succinimide (starting succinimide) (48 h, buffer 1 (PBS)) | Relative ratio: GS adduct (glutathione adduct formed by reverse Michael, then GSH addition) [1] | Relative ratio: Hydro pro (hydrolyzed succinimide) [1] | Relative ratio: Succinimide (starting succinimide) [1] | Relative ratio: GS adduct (glutathione adduct formed by reverse Michael, then GSH addition) [2] | Relative ratio: Hydro pro (hydrolyzed succinimide) [2] | Relative ratio: Succinimide (starting succinimide) [2] | Relative ratio: GS adduct (glutathione adduct formed by reverse Michael, then GSH addition) (120 h, buffer 1 (PBS)) | Relative ratio: Hydro pro (hydrolyzed succinimide) (120 h, buffer 1 (PBS)) | Relative ratio: Succinimide (starting succinimide) (120 h, buffer 1 (PBS)) | Relative ratio: GS adduct (glutathione adduct formed by reverse Michael, then GSH addition) [3] | Relative ratio: Hydro pro (hydrolyzed succinimide) [3] | Relative ratio: Succinimide (starting succinimide) [3] | Relative ratio: GS adduct (glutathione adduct formed by reverse Michael, then GSH addition) [4] | Relative ratio: Hydro pro (hydrolyzed succinimide) [4] | Relative ratio: Succinimide (starting succinimide) [4] |
| --- | --- | --- | --- | --- | --- | --- | --- | --- | --- | --- | --- | --- | --- | --- | --- | --- | --- | --- |
| O=C(CCCN1C(=O)CC(SCCC(=O)NCc2ccccc2)C1=O)NCCOCCOCCNC(=O)c1ccc2ccc3cccc4ccc1c2c34 (stereo not drawn) [Compound 68] | 0 | 21 | 79 | 9 | 16 | 75 | 7 | 13 | 80 | 0 | 53 | 47 | 17 | 41 | 42 | 16 | 35 | 49 |
| O=C(CCCN1C(=O)CC(SCCCC(=O)NCc2ccccc2)C1=O)NCCOCCOCCNC(=O)c1ccc2ccc3cccc4ccc1c2c34 (stereo not drawn) [Compound 69] | 0 | 25 | 75 | 6 | 14 | 79 | 4 | 11 | 85 | 0 | 63 | 37 | 12 | 39 | 49 | 10 | 33 | 57 |
| O=C(CCCN1C(=O)CC(SCC(=O)NCc2ccccc2)C1=O)NCCOCCOCCNC(=O)c1ccc2ccc3cccc4ccc1c2c34 (stereo not drawn) [Compound 67] | 0 | 43 | 57 | 41 | 18 | 41 | 31 | 12 | 57 |  |  |  | 52 | 38 | 3 | 59 | 28 | 9 |
